1 compound from patent US20120035444A1, “INTRAVITAL SAMPLE DEVICE FOR IN VIVO DRUG SCREENING” (NATIONAL TAIWAN UNIVERSITY, priority 2008, published 2012) can be followed below.

Each structure is given as a SMILES string.

In this data set the test system is liver. The note with it: feeding for 10 days (FIG. 8). The text has this: Two-photon microscopy was used to observe living organism. […] The multiphoton microscope is illustrated in FIG. 5. […] The SHG signal was collected in the backscattering geometry.
When the liver was damaged, the function of hepatocytes would also be damaged. In the present invention, CCl4 was applied to simulate the reaction of hepatocyte when the liver was toxic.

As to `ClC(Cl)(Cl)Cl` [CCl4], the “liver state after feeding CCl4” value was “fibrosis”.
